Each structure is given as a SMILES string. Like-named read-outs stand apart in the source and are kept apart here. Where a SMILES comes first, the peptide text is derived from it. Bridges are numbered along the chain shown (N, C = ends). [ ]: non-standard residue; d: D form. Phe(3-Cl) = N[C@@H](Cc1cccc(Cl)c1)C(=O)O; hCys = N[C@@H](CCS)C(=O)O; Nle = CCCC[C@H](N)C(=O)O

The IC50 is the concentration needed to halve the response being measured.

Data set [1] is described as follows: Stability in plasma (percentage of residual peptides). Conditions: for Stability* (>24 h): plasma.
Description: For the YAP inhibitory polypeptides modified in above (a) and (b), the IC50 values for TEAD binding and the stability in plasma were measured.
A short description of data set [2]: Cell penetration or infiltration of the polypeptides. Type of data set: cell-based. The source says:
In this example, the sequence was modified based on SEQ ID NO.: 1. Some preferred modification based on the tested results included: adding a disulfide linkage within the peptide, or adding a cell-penetrating element.

Data set [3] concerns hepatoma cell line BEL7404. Type of data set: cell-based. The conditions noted are these: Table 8; at a concentration of 1% in cell cultivating for 72 h; unit inferred; read-out: IC50 BEL7404. As to the method:
(§1) The hepatoma cell line BEL7404 (purchased from The Chinese Academy of Sciences cell bank) was a cell line with high expression of YAP protein; HCCLM3 (purchased from The Chinese Academy of Sciences cell bank) was a cell line with low expression of YAP protein. The hepatoma cell lines (BEL7404 or HCCLM3) were inoculated into a 96-well plate at the concentration of 2000 cells/well, and incubated overnight in RPMI1640 containing 1% bovine serum at 37° C. The hepatoma cell lines were treated with polypeptides having different concentrations at 37° C. for 72 h.
(§2) Moreover, IC50 values of the cells in 1.1 were determined using CCK-8 kit.
(§3) The polypeptide represented by SEQ ID NO.:1 was further modified. The IC50 values of the polypeptides at a concentration of 1% in cell cultivating for 72 h were measured.

Data set [4] deals with hepatoma cell line HCCLM3. Type of data set: cell-based. Conditions: Table 8; at a concentration of 1% in cell cultivating for 72 h; unit inferred; read-out: IC50 HCCLM3. As to the method: as §1, §2, §3
Where [5] appears, read: Table 2, percentage of residual peptides after >24 h.

As for `CSCC[C@H](NC(=O)[C@@H]1CCCN1C(=O)[C@@H](N)C(C)C)C(=O)N[C@H]1CCSSC[C@@H](C(=O)N[C@@H](CCCCN)C(=O)N2CCC[C@H]2C(=O)N2CCC[C@H]2C(=O)N[C@@H](CCC(=O)O)C(=O)O)NC(=O)[C@H](Cc2ccccc2)NC(=O)[C@H](CO)NC(=O)[C@H](CC(=O)O)NC(=O)[C@@H]2CCCN2C(=O)[C@H](CC(C)C)NC(=O)[C@H](CCCCN)NC(=O)[C@H](CCCNC(=N)N)NC(=O)[C@H](CC(C)C)NC1=O` [Peptide 2], the “Stability* (>24 h)” value in data set [1] (setting [5]) was found to be 13%; in data set [1] (Table 3, >24 h), 7%. Moreover, the “Percentage of Cell penetration or infiltration (%)” value in data set [2] (Table 2, penetration of the peptide with RRMKWKK taken as 100%) came out at 8%.

Take `CSCC[C@H](NC(=O)[C@@H]1CCCN1C(=O)[C@@H](N)C(C)C)C(=O)N[C@@H](CCCNC(=N)N)C(=O)N[C@@H](CC(C)C)C(=O)N[C@@H](CCCNC(=N)N)C(=O)N[C@@H](CCCCN)C(=O)N[C@@H](CC(C)C)C(=O)N1CCC[C@H]1C(=O)N[C@@H](CC(=O)O)C(=O)N[C@@H](CO)C(=O)N[C@@H](Cc1ccccc1)C(=O)N[C@@H](Cc1ccccc1)C(=O)N[C@@H](CCCCN)C(=O)N1CCC[C@H]1C(=O)N1CCC[C@H]1C(=O)N[C@@H](CCC(=O)O)C(=O)O` [SEQ ID NO.: 1]: the “Stability* (>24 h)” value in data set [1] (setting [5]) turned out to be 0%. Further, the stability result in data set [1] (in words) was “low stability”. Further, in data set [2], the “Percentage of Cell penetration or infiltration (%)” value was less than 10% and the uptake by cells entry is listed as “difficult for effective uptake by cells”.

As to `CCCC[C@@H]1NC(=O)[C@H](CCCCN)NC(=O)[C@H](CCCCN)NC(=O)[C@H](CC(C)C)NC(=O)[C@H](Cc2cccc(Cl)c2)NC(=O)[C@@H](NC(=O)[C@@H]2CCCN2C(=O)[C@@H](N)C(C)C)CCSSC[C@@H](C(=O)N[C@@H](Cc2ccccc2)C(=O)N[C@@H](CCCCN)C(=O)N2CCC[C@H]2C(=O)N2CCC[C@H]2C(=O)N[C@@H](CCCNC(=N)N)C(=O)N[C@@H](CCCNC(=N)N)C(=O)N[C@@H](CCSC)C(=O)N[C@@H](CCCCN)C(=O)N[C@@H](Cc2c[nH]c3ccccc23)C(=O)N[C@@H](CCCCN)C(=O)N[C@@H](CCCCN)C(=O)O)NC(=O)[C@H](CO)NC(=O)[C@H](C)NC(=O)[C@@H]2CCCN2C1=O` [compound 31] (H-VP[hCys][Phe(3-Cl)]LKK[Nle]PASCFKPPRRMKWKK-OH; disulfide 3-12), the IC50 in data set [3] was determined as 16.2 ± 1.9 µM; in data set [4], 107 ± 23.2 µM.

Take `CCCC[C@@H]1NC(=O)[C@@H](NC(=O)[C@H](CCCCN)NC(=O)[C@H](CCCCN)NC(=O)[C@H](CC(C)C)NC(=O)[C@H](Cc2cccc(Cl)c2)NC(=O)[C@@H]2CCCN2C(=O)[C@@H](N)C(C)C)CCSSC[C@@H](C(=O)N[C@@H](CCCNC(=N)N)C(=O)N[C@@H](CCCNC(=N)N)C(=O)N[C@@H](CCSC)C(=O)N[C@@H](CCCCN)C(=O)N[C@@H](Cc2c[nH]c3ccccc23)C(=O)N[C@@H](CCCCN)C(=O)N[C@@H](CCCCN)C(=O)O)NC(=O)[C@@H]2CCCN2C(=O)[C@@H]2CCCN2C(=O)[C@H](CCCCN)NC(=O)[C@H](Cc2ccccc2)NC(=O)[C@H](CO)NC(=O)[C@H](C)NC(=O)[C@@H]2CCCN2C1=O` [compound 33] (H-VP[Phe(3-Cl)]LKK[hCys][Nle]PASFKPPCRRMKWKK-OH; disulfide 7-16): the concentration for half-maximal inhibition (IC50) in data set [3] turned out to be 10.8 ± 2.1 µM; in data set [4], 81.1 ± 13.1 µM.

For the origin of these results see patent publication US10526385B2, “YAP protein inhibiting polypeptide and application thereof” (BAO KANG BIOMEDICAL HEALTHCARE INC, priority 2013, dated 2020).
